According to patent US6737383B1, “Herbicidal oxadiazolidines” (priority 1999, dated 2004):

Key:
wheat = assay: Test B pre/postemergence wheat; type: in vivo, Triticum aestivum
How it was run: (§1)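 Herbicidal effect was estimated by eye on a ten-point control scale after plants spent twelve to sixteen days in a greenhouse following soil or foliar treatment. Foliar sprays targeted plants at one to four leaves; all doses were formulated in a non-phytotoxic solvent with surfactant.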

pigweed = assay: Test B pre/postemergence pigweed; type: in vivo, Amaranthus retroflexus
How it was run: as §1

blackgrass = assay: Test B pre/postemergence blackgrass; type: in vivo, Alopecurus myosuroides
How it was run: as §1

morningglory = assay: Test B pre/postemergence morningglory; type: in vivo, Ipomoea hederacea
How it was run: as §1

bedstraw = assay: Test B pre/postemergence bedstraw; type: in vivo, Galium aparine; settings: Rate 62 g/ha
How it was run: as §1

corn = assay: Test B pre/postemergence corn; type: in vivo, Zea mays
How it was run: as §1

wild oat = assay: Test B pre/postemergence wild oat; type: in vivo, Avena fatua
How it was run: as §1

velvetleaf = assay: Test B pre/postemergence velvetleaf; type: in vivo, Abutilon theophrasti
How it was run: as §1

purple nutsedge = assay: Test B pre/postemergence purple nutsedge; type: in vivo, Cyperus rotundus
How it was run: as §1

giant foxtail = assay: Test B pre/postemergence giant foxtail; type: in vivo, Setaria faberii
How it was run: as §1

soybean = assay: Test B pre/postemergence soybean; type: in vivo, Glycine max
How it was run: as §1

surinam grass = assay: Test B pre/postemergence surinam grass; type: in vivo, Brachiaria decumbens
How it was run: as §1

crabgrass = assay: Test B pre/postemergence crabgrass; type: in vivo, Digitaria sanguinalis
How it was run: as §1

sugar beet = assay: Test B pre/postemergence sugar beet; type: in vivo, Beta vulgaris
How it was run: as §1

rape = assay: Test B pre/postemergence rape; type: in vivo, Brassica napus
How it was run: as §1

cocklebur = assay: Test B pre/postemergence cocklebur; type: in vivo, Xanthium strumarium
How it was run: as §1

[1] = Postemergence, Rate 62 g/ha, scale of 0 to 10, 0 is no effect, 10 is complete control
[2] = Postemergence, Rate 125 g/ha, scale 0 to 10, 0 is no effect, 10 is complete control
[3] = Postemergence, Rate 500 g/ha, scale 0 to 10, 0 is no effect, 10 is complete control
[4] = Preemergence, Rate 62 g/ha, scale of 0 to 10 where 0 is no effect and 10 is complete control
[5] = Preemergence, Rate 125 g/ha, scale 0 to 10, 0 is no effect, 10 is complete control
[6] = Rate 250 g/ha, Postemergence, scale of 0 to 10 where 0 is no effect and 10 is complete control
[7] = Preemergence, Rate 500 g/ha, scale of 0 to 10 where 0 is no effect and 10 is complete control

CCCCn1c(=O)on(C(=O)N(c2ccc(Cl)cc2)C(C)C)c1=O [Compound 527]
5: Plant response rating, Morningglory (morningglory; [6]) | Giant foxtail plant response rating (giant foxtail; [1]) | Plant response rating, Soybean (soybean; [3])
6: Plant response rating, Morningglory (morningglory; [3]) | Sugarbeets plant response rating (sugar beet; [5]) | Sugarbeets plant response rating (0 to 10 scale) (sugar beet; Preemergence, Rate 250 g/ha) | Sugarbeets plant response rating (sugar beet; [7])
8: Giant foxtail plant response rating (giant foxtail; [2]) | Plant response rating, Giant foxtail (giant foxtail; [6])
10: Giant foxtail plant response rating (giant foxtail; [5]) | Giant foxtail plant response rating (0 to 10 scale) (giant foxtail; Preemergence, Rate 250 g/ha) | Giant foxtail plant response rating (giant foxtail; [7]) | Plant response rating, Crabgrass (crabgrass; [3]) | Crabgrass plant response rating (crabgrass; [5]) | Crabgrass plant response rating (0 to 10 scale) (crabgrass; Preemergence, Rate 250 g/ha) | Crabgrass plant response rating (crabgrass; [7])
0: Wheat plant response rating (wheat; [1]) | Wheat plant response rating (wheat; [2]) | Plant response rating, Wheat (wheat; [3]) | Plant response rating, Wheat (wheat; [4]) | Wheat plant response rating (wheat; [5]) | Wheat plant response rating (0 to 10 scale) (wheat; Preemergence, Rate 250 g/ha) | Plant response rating, Wheat (wheat; [6]) | Redroot pigweed plant response rating (pigweed; [1]) | Redroot pigweed plant response rating (pigweed; [2]) | Plant response rating, Redroot pigweed (pigweed; [3]) | Plant response rating, Redroot pigweed (pigweed; [4]) | Plant response rating, Redroot pigweed (pigweed; [6]) | Blackgrass plant response rating (blackgrass; [1]) | Plant response rating, Blackgrass (blackgrass; [4]) | Plant response rating, Morningglory (morningglory; [4]) | Morningglory plant response rating (morningglory; [5]) | Morningglory plant response rating (0 to 10 scale) (morningglory; Preemergence, Rate 250 g/ha) | Bedstraw plant response rating (bedstraw; Postemergence, scale of 0 to 10, 0 is no effect, 10 is complete control) | Plant response rating, Bedstraw (bedstraw; Preemergence, scale of 0 to 10 where 0 is no effect and 10 is complete control) | Corn plant response rating (corn; [1]) | Corn plant response rating (corn; [2]) | Plant response rating, Corn (corn; [3]) | Plant response rating, Corn (corn; [4]) | Corn plant response rating (corn; [5]) | Corn plant response rating (0 to 10 scale) (corn; Preemergence, Rate 250 g/ha) | Corn plant response rating (corn; [7]) | Plant response rating, Corn (corn; [6]) | Wild oats plant response rating (wild oat; [1]) | Wild oats plant response rating (wild oat; [2]) | Plant response rating, Wild oats (wild oat; [3]) | Plant response rating, Wild oats (wild oat; [4]) | Wild oats plant response rating (wild oat; [5]) | Plant response rating, Wild oats (wild oat; [6]) | Plant response rating, Velvetleaf (velvetleaf; [4]) | Nutsedge plant response rating (purple nutsedge; [1]) | Plant response rating, Nutsedge (purple nutsedge; [4]) | Nutsedge plant response rating (purple nutsedge; [5]) | Nutsedge plant response rating (0 to 10 scale) (purple nutsedge; Preemergence, Rate 250 g/ha) | Nutsedge plant response rating (purple nutsedge; [7]) | Plant response rating, Nutsedge (purple nutsedge; [6]) | Plant response rating, Soybean (soybean; [4]) | Soybean plant response rating (soybean; [5]) | Soybean plant response rating (0 to 10 scale) (soybean; Preemergence, Rate 250 g/ha) | Soybean plant response rating (soybean; [7]) | B. signalgrass plant response rating (surinam grass; [1]) | B. signalgrass plant response rating (surinam grass; [2]) | Plant response rating, B. signalgrass (surinam grass; [6]) | Sugarbeets plant response rating (sugar beet; [1]) | Sugarbeets plant response rating (sugar beet; [2]) | Plant response rating, Sugarbeets (sugar beet; [4]) | Plant response rating, Sugarbeets (sugar beet; [6]) | Rape plant response rating (rape; [1]) | Rape plant response rating (rape; [2]) | Plant response rating, Rape (rape; [4]) | Plant response rating, Rape (rape; [6]) | Cocklebur plant response rating (cocklebur; [1]) | Cocklebur plant response rating (cocklebur; [2]) | Plant response rating, Cocklebur (cocklebur; [4]) | Cocklebur plant response rating (cocklebur; [5]) | Cocklebur plant response rating (0 to 10 scale) (cocklebur; Preemergence, Rate 250 g/ha)
3: Blackgrass plant response rating (blackgrass; [2]) | Morningglory plant response rating (morningglory; [1]) | Morningglory plant response rating (morningglory; [2]) | Wild oats plant response rating (0 to 10 scale) (wild oat; Preemergence, Rate 250 g/ha) | Velvetleaf plant response rating (velvetleaf; [1]) | Plant response rating, Velvetleaf (velvetleaf; [3]) | Plant response rating, Velvetleaf (velvetleaf; [6]) | Soybean plant response rating (soybean; [1]) | Cocklebur plant response rating (cocklebur; [7])
7: Plant response rating, Blackgrass (blackgrass; [3])
4: Redroot pigweed plant response rating (pigweed; [5]) | Redroot pigweed plant response rating (0 to 10 scale) (pigweed; Preemergence, Rate 250 g/ha) | Redroot pigweed plant response rating (pigweed; [7]) | Plant response rating, Blackgrass (blackgrass; [6]) | Soybean plant response rating (soybean; [2]) | Plant response rating, Soybean (soybean; [6]) | B. signalgrass plant response rating (0 to 10 scale, 0 is no effect, 10 is complete control) (surinam grass; Preemergence, Rate 250 g/ha) | Crabgrass plant response rating (crabgrass; [1]) | Crabgrass plant response rating (crabgrass; [2])
9: Plant response rating, Giant foxtail (giant foxtail; [3]) | Plant response rating, Giant foxtail (giant foxtail; [4]) | Plant response rating, B. signalgrass (surinam grass; [3]) | Plant response rating, Crabgrass (crabgrass; [4]) | Plant response rating, Crabgrass (crabgrass; [6])
2: Blackgrass plant response rating (blackgrass; [5]) | Blackgrass plant response rating (0 to 10 scale) (blackgrass; Preemergence, Rate 250 g/ha) | Morningglory plant response rating (morningglory; [7]) | Velvetleaf plant response rating (velvetleaf; [2]) | Velvetleaf plant response rating (velvetleaf; [5]) | Velvetleaf plant response rating (0 to 10 scale) (velvetleaf; Preemergence, Rate 250 g/ha) | Velvetleaf plant response rating (velvetleaf; [7]) | Plant response rating, B. signalgrass (surinam grass; [4]) | B. signalgrass plant response rating (surinam grass; [5]) | Plant response rating, Sugarbeets (sugar beet; [3]) | Plant response rating, Rape (rape; [3]) | Rape plant response rating (rape; [5]) | Rape plant response rating (0 to 10 scale) (rape; Preemergence, Rate 250 g/ha) | Plant response rating, Cocklebur (cocklebur; [3]) | Plant response rating, Cocklebur (cocklebur; [6])
